Data taken from publication PMC4912077 (PLoS ONE, 2016).

What was measured:
Sprague–Dawley rats [1] = details: rat; cited from earlier work
[2] = test system: PCP site within the NMDAR channel; test: NMDAR binding, [3H]-MK-801 displacement in rat forebrain homogenate; details: lower affinity;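 note: IC50 by nonlinear regression of percent specific binding versus log concentration, Ki from IC50 via Cheng-Prusoff, raw counts in CPM, duplicates repeated at least three times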
Protocol: The reaction was terminated by vacuum filtration using a 24 well cell harvester (Brandel, Gaithersburg, MD) over presoaked GF/B glass fiber filters (Brandel, Gaithersburg, MD). Filters were washed with room temperature assay buffer (3 x 5 mL). […] IC50 values were determined in Graphpad Prism 5.0 using non-linear regression with log-concentration plotted against percent specific binding. […] Ki values were calculated using the equation of Cheng and Prusoff [24]. […] Protein concentration was determined via the Bradford method using Coomassie protein assay reagent (Sigma, USA) [25] with rat albumin (Sigma, USA) as standard. Experiments were performed in duplicate and repeated a minimum of three times.

[3] = test system: PCP site within the NMDAR channel; details: [3H]-(+)-MK-801, rat forebrain, cited from earlier work
Sprague–Dawley rats [4] = test: Pre-pulse inhibition (PPI) of acoustic startle in rats; format: in vivo, rat; details: higher potency
Protocol: Male Sprague–Dawley rats from Harlan Industries (Indianapolis, IN, USA; initial weight 250–275 g) were housed in pairs under a 12-h reverse light/dark cycle (lights off at 0700 h). Use of a reversed light/dark cycle allows behavioral testing to be conducted during the awake phase of the light/dark cycle. Food and water were available ad libitum. Animals were acclimatized for approximately 1 wk after arrival prior to behavioral testing and maintained in Association for Assessment and Accreditation of Laboratory Animal Care (AAALAC)-approved facilities that meet all federal and state guidelines. Procedures were approved by the University of California San Diego institutional animal care and use committee. Principles of laboratory animal care were followed.
DPH hydrochloride and 2-MXP hydrochloride were dissolved in water containing 5% Tween-80 and administered subcutaneously, 10-min prior to the start of the startle test session. The injection volume was 1 ml/kg.
Eight startle chambers (SR-LAB system, San Diego Instruments, San Diego, CA, USA) were used to measure startle reactivity in rats. The startle test chambers were sound-attenuated, lighted, and ventilated enclosures containing a clear nonrestrictive cylindrical Plexiglas stabilimeter, 8.2 cm in diameter. A high-frequency loudspeaker mounted 24 cm above the Plexiglas cylinder produced all acoustic stimuli. The peak and average amplitudes of the startle response were detected by a piezoelectric accelerometer. At the onset of the startling stimulus, 100 1-ms readings were recorded, and the average amplitude was used to determine the magnitude of the startle response (measured in arbitrary units).
Acoustic startle test sessions consisted of startle trials (pulse-alone) and prepulse trials (prepulse + pulse). The pulse-alone trial consisted of a 40-ms 120-dB pulse of broadband white noise. Prepulse + pulse trials consisted of a 20-ms acoustic prepulse, an 80-ms delay, and then a 40-ms 120-dB startle pulse (100-ms onset–onset). There was an average of 15 s (range = 6–22 s) between trials. During each inter-trial interval, the movements of the animals were recorded once to measure response when no stimulus was present (data not shown). Each startle session began with a 5 min acclimation period to a 65-dB broadband noise that was present continuously throughout the session. One week after arrival, animals were tested in a brief baseline startle/PPI session to create treatment groups matched for levels of startle and PPI. The startle test session contained 12 pulse-alone trials and 36 prepulse + pulse trials (12 prepulses each of 68-, 71-, and 77-dB [equivalent to 3-, 6-, and 12-dB above background]) presented in a pseudo-randomized order. Six pulse-alone trials were presented at the beginning and the end of the test session but were not used in the calculation of PPI values. Raw data for all PPI experiments are provided as supporting information (S5 File).
The amount of PPI was calculated as a percentage score for each prepulse + pulse trial type: %PPI = 100−{[(startle response for prepulse + pulse trial)/(startle response for pulse-alone trial)] × 100}. Startle magnitude was calculated as the average response to all of the pulse-alone trials. PPI data were analyzed with two-factor analysis of variance (ANOVA) with treatment as the between-subjects factor and trial type (prepulse intensity) as a repeated measure. For experiments in which there was no significant interaction between drug and prepulse intensity, PPI data were collapsed across prepulse intensity and average PPI was used as the main dependent measure. ED50 values were calculated using nonlinear regression. Startle magnitude data were analyzed with one-factor ANOVA. Post-hoc analyses were performed using Tukey’s studentized range method. The alpha level was set at 0.05.

## c1ccc(C2(N3CCCCC3)CCCCC2)cc1 [PCP, Phencyclidine]
Sprague–Dawley rats [1]
  ED50 for disruption of PPI: 3.15 µmol/kg
[2]
  [3H]MK-801 displacement affinity relative to DPH: 3 fold
[3]
  IC50: 91 ± 1.3 nM
[3]; read-out: Ki ± SEM
  Ki: 57.9 ± 0.8 nM
Sprague–Dawley rats [4]
  potency to alter PPI relative to DPH: 10 fold
